Measured values published in ChEMBL document CHEMBL4138277, “Lipovelutibols A-D: Cytotoxic Lipopeptaibols from the Himalayan Cold Habitat Fungus Trichoderma velutinum” (J Nat Prod, 2018).
Non-standard residues stand in square brackets, D forms with d. Residues, ends and D or L forms follow the SMILES beside them. *: point of attachment. Leu(ol) = CC(C)C[C@H](N)CO; dIva = CC[C@@](C)(N)C(=O)O; Octanoyl = CCCCCCCC(=O)*; Aib = CC(C)(N)C(=O)O

Legend:
Type in all cases: functional, cell-based
LS180 = assay: Cytotoxicity against human LS180 cells after 48 hrs by MTT assay; conditions: LS180, 48 h
A549 = assay: Cytotoxicity against human A549 cells after 48 hrs by MTT assay; conditions: A549, 48 h
HL-60 = assay: Cytotoxicity against human HL60 cells after 48 hrs by MTT assay; conditions: HL-60, 48 h
MDA-MB-231 = assay: Cytotoxicity against human MDA-MB-231 cells after 48 hrs by MTT assay; conditions: MDA-MB-231, 48 h

**Q.** Which results are given for CCCCCCCC(=O)NCC(=O)N[C@@H](C)C(=O)N[C@@H](CC(C)C)C(=O)NC(C)(C)C(=O)N[C@@H](C)C(=O)N[C@H](C(=O)N[C@H](CO)CC(C)C)[C@@H](C)CC (Octanoyl-GAL[Aib]AI[Leu(ol)])?
**A.** IC50 (LS180): > 30 µM; IC50 (A549): 17 µM; IC50 (HL-60): 16 µM; IC50 (MDA-MB-231): 16 µM

**Q.** Which results are given for CCCCCCCC(=O)NCC(=O)N[C@@H](C)C(=O)N[C@@H](CC(C)C)C(=O)NC(C)(C)C(=O)N[C@@H](CO)C(=O)N[C@H](C(=O)N[C@H](CO)CC(C)C)[C@@H](C)CC (Octanoyl-GAL[Aib]SI[Leu(ol)])?
**A.** IC50 (LS180): > 30 µM; IC50 (A549): 30 µM; IC50 (HL-60): > 30 µM; IC50 (MDA-MB-231): > 30 µM

**Q.** Which results are given for CCCCCCCC(=O)NCC(=O)N[C@@H](C)C(=O)N[C@@H](CC(C)C)C(=O)N[C@](C)(CC)C(=O)N[C@@H](CO)C(=O)N[C@H](C(=O)N[C@H](CO)CC(C)C)[C@@H](C)CC?
**A.** IC50 (LS180): > 30 µM; IC50 (A549): 30 µM; IC50 (HL-60): 2 µM; IC50 (MDA-MB-231): 4 µM

**Q.** With CC(=O)O[C@H]1C(=O)[C@@]2(C)[C@H]([C@H](OC(=O)c3ccccc3)[C@]3(O)C[C@H](OC(=O)[C@H](O)[C@@H](NC(=O)c4ccccc4)c4ccccc4)C(C)=C1C3(C)C)[C@]1(OC(C)=O)CO[C@@H]1C[C@@H]2O [PACLITAXEL] as the compound, how does the IC50 (LS180) read?
**A.** 0.0028 µM

**Q.** Which IC50 (LS180) does the source give for CCCCCCCC(=O)NCC(=O)N[C@@H](C)C(=O)N[C@@H](CC(C)C)C(=O)N[C@](C)(CC)C(=O)N[C@@H](C)C(=O)N[C@H](C(=O)N[C@H](CO)CC(C)C)[C@@H](C)CC (Octanoyl-GAL[dIva]AI[Leu(ol)]) here?
**A.** 7 µM

**Q.** And the IC50 (A549)?
**A.** 4 µM

**Q.** And the IC50 (HL-60)?
**A.** 4 µM

**Q.** And the IC50 (MDA-MB-231)?
**A.** 5 µM
